{"source": "patent US20220249525A1", "about": "“Fatty Acid Compounds for Prevention and Treatment of Neurodegenerative Disorders” (T OMEGA AS, priority 2019, published 2022)", "key": {"HCC827 cells [1]": {"tested_on": "HCC827 cells", "assay": "Resazurin conversion cell viability/proliferation assay in HCC827 cells", "format": "cell-based", "experimental": "(§1) Non-small cell lung cancer cells, HCC827 (ATCC) were cultured in RPMI-1640 Glutamax medium (Sigma-Aldrich St. Louis, Mo., USA), under conventional culture conditions. Media was supplemented with 10% Fetal Bovine Serum (FBS), 1% glutamine and 1% streptomycin/penicillin (Sigma-Aldrich). HeLaNRF1/c4 reporter cells were cultured in Dulbecco's Modified Eagle's Medium (DMEM) supplemented with 10% FBS, 2 mM L-Glutamine, 100 u/ml penicillin/streptomycin (Sigma-Aldrich,). Incubation was done at 37° C. in 5% CO2.\n(§2) Cell viability/proliferation was determined by the resazurin conversion assay. A total of 4000 cells were seeded in each of the 96-well plates in 100 μl of medium. After 3 hours of incubation, 100 μl of fresh medium with respective concentration of the desired compound or controls were added. Resazurin solution (Sigma-Aldrich) was added (10%, v/v in PBS) after 1 or 3 day treatment, followed by 3 hour incubation at 37° C. and 5% CO2. Resazurin fluorescence (excitation, 540 nm; emission, 590 nm) was measured and measurements were corrected for background signals. […] Relative viability was calculated from percent fluorescence relative to DMSO-treated control wells."}, "HCC827 cells [2]": {"tested_on": "HCC827 cells", "assay": "Mitochondria respiration assay (OCR, extracellular flux) in HCC827 cells", "format": "cell-based", "experimental": "as §1\nMitochondria function was analyzed by measuring oxygen consumption rate (OCR) by extracellular flux analysis in a Seahorse XFe96 instrument (Agilent Seahorse XF Technologies). The measurements were performed in DADA basic media without phenol red, supplemented with L-glutamine (2 mM), pyruvate (2 mM), and sodium chloride, NaCl (32 mM) (Sigma-Aldrich). Respiratory rates were measured following sequential additions of glucose (10 mM), oligomycin, carbonyl cyanide m-chlorophenyl hydrazine (CCCP) and a mixture of rotenone (1 μM) and antimycin A (1 μM). Before carrying out the measurements for each cell model, optimizations were done for; cell number, CCCP, and oligomycin concentrations. For the HCC 827 cell model optimal conditions were; 30,000 cells/well, 0.5 μM CCCP, and 3 μM Oligomycin; and in HeLaNRF1/c4 reporter cell model; 20,000 cells/well, 1 μM CCCP and 3 μM Oligomycin. The OCR measured initially (before any additions) represented the rate ‘basal respiration.’ The addition of ATP synthase inhibitor oligomycin provided oxygen consumption independent of ATP production (‘leak activity’). Maximal respiration (also referred to as ‘respiratory capacity’) was measured upon addition of the uncoupler CCCP. […] After the extracellular flux analysis the analysis plates were washed with Phosphate Buffered Saline (PBS) and frozen at −80° C. The BCA assay (Pierce BCA protein assay kit, Thermo Fisher Scientific, Waltham, Mass. USA) was employed to measure the protein content in the wells. To evaluate the effects of the different treatments, the respiratory rates from compound-treated wells were normalized to protein content, and calculated as percentage of the average respiratory rate of the DMSO-treated control wells. All treatments were performed with 6-8 replicate wells."}, "[3]": {"tested_on": "HeLaNRF1/c4 reporter cells", "assay": "Resazurin conversion assay in HeLaNRF1/c4 reporter cells", "format": "cell-based", "conditions": "test compounds 30 μM and 60 μM, long treatment", "experimental": "as §1, §2\nIn order to investigate if some of the compounds induce metabolic adaptations involving mitochondrial biogenesis, we employed the HeLaNRF1/c4 reporter cells in which activation of the transcription factor NRF1 triggers expression of GFP. Since adaptations of mitochondrial biogenesis are known to require some days to develop, we used a relatively low dosage (30 μM and 60 μM) of the compounds, to allow longer treatment period compared to the previous short term experiments."}, "[4]": {"tested_on": "MOLM-13 human acute leukemia cells", "assay": "WST-1 viability of MOLM-13 cells", "format": "cell-based", "conditions": "for Abs450 nm (WST-1 viability): complexed to BSA", "experimental": "MOLM-13 suspension cells were diluted and added to 96-well plates (15.000 cells/well).\nThe modified fatty acids TTA, tr-TTA, TDG (TGH) and tr-TDG (tr-TGH) were complexed to bovine serum albumin (BSA), and 10-fold dilutions of the fatty acids or BSA control were added to the wells in duplicate. Two plates were run in parallel, and WST-1 was added to the cells after 48 (plate 1) and 72 hours (plate 2). Absorbance at 450 nm measured to assess viability of the cells."}, "[5]": {"assay": "4 week high-fat diet study, body weight, adipose tissue, plasma glucose and cholesterol", "format": "in vivo, C57BL/6 mice", "conditions": "mice, N-TTA 750 mg/kg or triple-N-TTA 350 mg/kg body weight, 4 weeks", "experimental": "This animal study was conducted according to the Guidelines for the Care and Use of Experimental Animals, and the protocol was approved by the Norwegian Food Authorities. 7 to 8-weeks old male C57BL/6 mice, were obtained from Janvier Labs. After one week of acclimatization, they were divided into 3 groups of 7 animals. One group was fed a control high-fat (25 w/v) diet while the two remaining groups were fed a high-fat diet supplemented with either N-TTA (750 mg/kg body weight) or triple-N-TTA (350 mg/kg body weight). After 4 weeks of feeding, the mice were anaesthetized with Isofluorane (Forane, Abbot Laboratories Ltd, Illinois, USA) inhalation under fasting conditions, and blood and liver samples were collected. […]\nGlucose and lipids in plasma was measured on the Hitachi 917 system (Roche Diagnostics, GmbH, Mannheim, Germany) using kits from Roche Diagnostics or DiaSys."}}}
{"smiles": "CCCCCCCCCCCCCCNCC(=O)O", "note": "[N-TTA, N-tetradecylglycine]", "values": [{"measurement": "dose-dependent pattern of antiproliferative effects", "setting": "HCC827 cells [1]; HCC827 cells, three different concentrations", "value": "dose-dependent pattern of antiproliferative effects was found"}, {"measurement": "overall effects on cell viability and mitochondrial function (summary)", "setting": "HCC827 cells [1]; cultured cells, relatively high dosage", "value": "cytotoxic effects"}, {"measurement": "leak respiration after oligomycin", "setting": "HCC827 cells [2]; 100 μM TTA, 200 μM 2-triple TTA, 30 μM TDG", "value": "significantly increased"}, {"measurement": "basal respiratory rate (OCR)", "setting": "HCC827 cells [2]; compared to control", "value": "decreased in a dose-dependent manner"}, {"measurement": "leak respiration after oligomycin", "setting": "HCC827 cells [2]; higher concentrations", "value": "reduced leak respiration"}, {"measurement": "resazurin conversion", "setting": "[3]", "value": "dose-dependent reduction"}, {"measurement": "Abs450 nm (WST-1 viability)", "setting": "[4]; 48 hours, 0.0625 mM", "value": 0.9307}, {"measurement": "Abs450 nm (WST-1 viability)", "setting": "[4]; 48 hours, 0.125 mM", "value": 0.4765}, {"measurement": "Abs450 nm (WST-1 viability)", "setting": "[4]; 48 hours, 0.25 mM", "value": 0.5423}, {"measurement": "Abs450 nm (WST-1 viability)", "setting": "[4]; 48 hours, 0.5 mM", "value": 0.3207}, {"measurement": "Abs450 nm (WST-1 viability)", "setting": "[4]; 48 hours, 1 mM", "value": 0.257}, {"measurement": "Abs450 nm (WST-1 viability)", "setting": "[4]; 48 hours, 2 mM", "value": 0.3163}, {"measurement": "Abs450 nm (WST-1 viability)", "setting": "[4]; 72 hours, 0.03125 mM", "value": 0.4491}, {"measurement": "Abs450 nm (WST-1 viability)", "setting": "[4]; 72 hours, 0.0625 mM", "value": 0.8073}, {"measurement": "Abs450 nm (WST-1 viability)", "setting": "[4]; 72 hours, 0.125 mM", "value": 0.4813}, {"measurement": "Abs450 nm (WST-1 viability)", "setting": "[4]; 72 hours, 0.25 mM", "value": 0.203}, {"measurement": "Abs450 nm (WST-1 viability)", "setting": "[4]; 72 hours, 0.5 mM", "value": 0.175}, {"measurement": "Abs450 nm (WST-1 viability)", "setting": "[4]; 72 hours, 1 mM", "value": 0.1893}, {"measurement": "Abs450 nm (WST-1 viability)", "setting": "[4]; 72 hours, 2 mM", "value": 0.2359}, {"measurement": "toxicity to leukemic cells", "setting": "[4]; MOLM-13, compared with TTA and tr-TTA", "value": "toxic to leukemic cells at a lower concentration than TTA and tr-TTA"}, {"measurement": "LDL cholesterol (plasma)", "setting": "[5]", "value": "reduced"}, {"measurement": "body weight gain vs high-fat control diet", "setting": "[5]", "value": "significantly lower"}, {"measurement": "cholesterol esters (plasma)", "setting": "[5]", "value": "reduced"}, {"measurement": "epididymal white adipose tissue depot", "setting": "[5]", "value": "reduced in size"}, {"measurement": "free cholesterol (plasma)", "setting": "[5]", "value": "reduced"}, {"measurement": "perirenal white adipose tissue depot", "setting": "[5]", "value": "reduced in size"}, {"measurement": "total cholesterol (plasma)", "setting": "[5]", "value": "reduced"}, {"measurement": "blood glucose vs high-fat control diet", "setting": "[5]; fasting", "value": "significantly lower"}]}
